Data reported in PubChem BioAssay AID1963827 (Molecular Pharmacology Branch, DTP, NCI, 2024).
Values joined by “and” are separate entries in the source; they are usually repeats but may differ in a detail not shown here. Identical values can stand only once.

Tested on: 994946-033-R-J1-PDC complex spheroid viability
Assay: Anticancer human tumor 994946-033-R-J1-PDC patient-derived melanoma cell line growth inhibition [POLQ]
Conditions: for viability, T/C: stronger effect = lower value
Experimental: Multicellular complex tumor spheroid response to Polymerase (POL) inhibitors (novobiocin, ART-558, RP6685) in combination with a variety of drugs and investigational agents in selected tumor cell lines
The POL inhibitors (novobiocin, ART-558, and RP6685) were evaluated both individually and in combination with standard of care and investigational anticancer small molecules within a complex spheroid model of solid tumors. . Complex spheroids include a stromal component modeled by human endothelial cells (HUVEC) and fibroblasts modeled by human mesenchymal stem cells (MSCs). The concentration ranges selected for each drug and investigational agent were based upon clinically achievable concentrations if the clinical Cmax of the agent was known.
Compounds. The drugs and investigational agents: novobiocin (NSC847541), ART-558 (NSC835418), RP-6685 (NSC848927), peposertib (NSC802822), ceralasertib (NSC780249), elimusertib (NSC800525), camonsertib (NSC841442), AZD-1390 (NSC803789), olaparib (NSC753686), talazoparib (NSC767125), rucaparib (NSC756644), sotorasib (NSC818433), MRTX-1133 (NSC836407), SN-38 (NSC673596), topotecan (NSC609699), epotoside (NSC141540), doxorubicin (NSC123127), gemcitabine (NSC613327), 5-fluorouracil (NSC19893), paclitaxel (NSC125973), vemurafenib (NSC761431), MSA-2 (NSC828583), SN-011 (NSC837082), adavosertib (NSC754352), prexasertib (NSC758257), carboplatin (NSC241240) and oxaliplatin (NSC266046), were obtained from the National Cancer Institute (NCI) Developmental Therapeutics Program Chemical Repository (21). The FDA-approved anticancer drug set is available from the Developmental Therapeutics Program at https://dtp.cancer.gov/organization/dscb/obtaining/. […] The stock solutions were prepared in dimethyl sulfoxide (DMSO, Sigma-Aldrich, St. Louis, MO, cat. D2650), except for the platinum compounds which were prepared in saline (Quality Biological, Gaithersburg, MD, cat. 114-055-101), at 800-fold the tested concentration and stored at -70 degrees C prior to their use. All drugs and investigational agents were tested over a range starting from a high concentration at or near the clinical Cmax and decreasing in half-log increments. If the clinical Cmax for an agent had not been determined, the highest concentration tested was 10 microM, except for SN-38, which was tested at a high concentration of 1 microM.
Cell Culture. All cells were maintained in an incubator at 37 degrees C and 5% CO2 with 95% humidity. The PDC lines were cultured according to standard operating procedures established by the NCI PDMR (https://pdmr.cancer.gov). Table 3 of the manuscript, lists the cell lines along with the number of the three cell types plated to form the mct-spheroids and media for tumor cell growth. After thawing, all PDC lines, except 997537-175-T-J1-PDC and 415267-285-R-J2-PDC, were cultured in Matrigel-coated flasks prepared with a working solution of 1X Ham's F-12 nutrient mix, without supplementation (Thermo Fisher Scientific, cat. 11765054), 100 U/mL penicillin-streptomycin (Thermo Fisher Scientific, cat. 15140122), and 2.5% Matrigel (Corning Inc., Corning, NY, cat. 354248) for the first three passages. The two PDC lines 997537-175-T-J1-PDC and 415267-285-R-J2-PDC were cultured on uncoated flasks. The 857933-349-R-J2-PDC line was cultured in 6C/Colon 1B media containing advanced DMEM/F-12 (Thermo Fisher Scientific, cat. 12634028), 10 mM HEPES (Thermo Fisher Scientific, cat. 15630080), 1X GlutaMAX supplement (Thermo Fisher Scientific, cat. 35050061), 0.1 mg/mL primocin (InvivoGen, San Diego, CA, cat. ant-pm-2), 10% defined fetal bovine serum, heat inactivated (HyClone Laboratories Inc., Logan, UT, cat. SH30070.03HI), 50% L-WRN conditioned media (ATCC, cat. CRL-3276), 1.25 mM N-Acetyl-L-cysteine (Sigma-Aldrich, cat. A9165), 10 mM nicotinamide (Sigma-Aldrich, cat. N0636), 1X B-27 supplement (Thermo Fisher Scientific, cat. 17504044), 1X N-2 supplement (Thermo Fisher Scientific, cat. […]
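Further: spheroids exposed to drugs for 7 days.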
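Wherever viability, T/C is given: 100% = DMSO vehicle treated spheroids.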

For `Cc1cccc(N(C)C(=O)C2C(O)CCN2c2nc(C)cc(C(F)(F)F)c2C#N)c1` (stereo not given), the viability, T/C (compound 0.1 µM) was 93.6% [middle of 13 runs], the IC50 (compound alone, run of 10/31/2023) was greater than 10 µM and the IC50 (compound alone, run of 11/06/2023) was greater than 10 µM.

In the case of `COc1cccc(OCCCN)c1-c1cc(Nc2cnc(C#N)cn2)n[nH]1`, the viability, T/C (compound 0.00316 µM) is reported as 75.6% and 100% and 79.2%, the viability, T/C (compound 0.01 µM) is reported as 60.5% and 80.8% and 75.1% and the viability, T/C (compound 0.0316 µM) is reported as 14.7% and 28.4% and 65.5%. The viability, T/C (compound 0.1 µM) was 29.1% and 32.4% and 35.9%, the viability, T/C (compound 0.316 µM) was 28.6% and 28.5% and 17.2% and the viability, T/C (compound 1 µM) was 16.6% and 16.5% and 12.6%. For the same molecule, the IC50 (curve of compound) was 0.0137 µM and 0.0197 µM and 0.0575 µM.

For `C=CCn1c(=O)c2cnc(Nc3ccc(N4CCN(C)CC4)cc3)nc2n1-c1cccc(C(C)(C)O)n1`, the viability, T/C (compound 0.00316 µM) was 106% and 121% and 99.1%, the viability, T/C (compound 0.01 µM) was 109% and 114% and 99.8% and the viability, T/C (compound 0.0316 µM) was 113% and 106% and 123%. The viability, T/C (compound 0.1 µM) was 105% and 97.1% and 72.5%, the viability, T/C (compound 0.316 µM) was 97.5% and 68.8% and 88.4% and the viability, T/C (compound 1 µM) was 27.4% and 34.9% and 30.9%. For the same molecule, the IC50 (curve of compound) was 0.691 µM and 0.608 µM and 0.651 µM.

With `CCc1c2c(nc3ccc(O)cc13)-c1cc3c(c(=O)n1C2)COC(=O)[C@]3(O)CC` the viability, T/C (compound 0.00316 µM) was 17% and 30.3% and 19.5%, the viability, T/C (compound 0.01 µM) was 6.95% and 12.2% and 10.6% and the viability, T/C (compound 0.0316 µM) was 5.85% and 6.99% and 4.96%. The viability, T/C (compound 0.1 µM) was 3.9% and 5.58% and 5.13%, the viability, T/C (compound 0.316 µM) was 3.05% and 4.94% and 3.67% and the viability, T/C (compound 1 µM) was 1.76% and 2.96% and 1.2%. For the same molecule, the IC50 (curve of compound) was less than 0.00316 µM.

In the case of `CC(C)n1c(=O)n(C)c2cnc3cc(F)c(-c4ccc(OCCCN5CCCCC5)nc4)cc3c21`, the viability, T/C (compound 0.0316 µM) is reported as 95.4% and 78.5% and 82.5%, the viability, T/C (compound 0.1 µM) is reported as 86.1% and 90.5% and 82.5% and the viability, T/C (compound 0.316 µM) is reported as 93.8% and 117% and 70.9%. For the same molecule, the viability, T/C (compound 1 µM) was 86.5% and 77.2% and 84.3%, the viability, T/C (compound 3.16 µM) was 56.9% and 68.1% and 62.2% and the viability, T/C (compound 10 µM) was 21.2% and 41.8% and 25.7%. For the same molecule, the IC50 (curve of compound) was 3.94 µM and 6.87 µM and 4.65 µM.

In the case of `O=C(Nc1ccc(O)c(NS(=O)(=O)c2ccc(F)cc2)c1)c1ccc(-c2ccccc2)cc1`, the viability, T/C (compound 0.0316 µM) is reported as 68.8% and 116% and 90.9%, the viability, T/C (compound 0.1 µM) is reported as 87.8% and 77.9% and 78.2% and the viability, T/C (compound 0.316 µM) is reported as 83.3% and 91.7% and 96%. The viability, T/C (compound 1 µM) was 80.3% and 100% and 96.6%, the viability, T/C (compound 3.16 µM) was 89.9% and 85.7% and 90.8% and the viability, T/C (compound 10 µM) was 39% and 46.8% and 25.6%. The IC50 (curve of compound) was 7.46 µM and 9.19 µM and 6.49 µM.

`O=C(c1cc(Cc2n[nH]c(=O)c3ccccc23)ccc1F)N1CCN(C(=O)C2CC2)CC1` + Cc1cccc(N(C)C(=O)C2C(O)CCN2c2nc(C)cc(C(F)(F)F)c2C#N)c1 showed an IC50 (curve of first compound, second compound 0.0316 µM) of 6.12 µM, an IC50 (curve of first compound, second compound 0.1 µM) of 4.16 µM and an IC50 (curve of first compound, second compound 0.316 µM) of 8.94 µM. It also gave an IC50 (curve of first compound, second compound 1 µM) of 6.77 µM, an IC50 (curve of first compound, second compound 3.16 µM) of 4.89 µM and an IC50 (curve of first compound, second compound 10 µM) greater than 10 µM. It also gave a viability, T/C (second compound 0.0316 µM, first compound 0.0316 µM) of 103%, a viability, T/C (second compound 0.0316 µM, first compound 0.1 µM) of 92.8% and a viability, T/C (second compound 0.0316 µM, first compound 0.316 µM) of 82.3%. It also gave a viability, T/C (second compound 0.0316 µM, first compound 1 µM) of 94.2%, a viability, T/C (second compound 0.0316 µM, first compound 3.16 µM) of 80.2% and a viability, T/C (second compound 0.0316 µM, first compound 10 µM) of 27.3%. The viability, T/C (second compound 0.1 µM, first compound 0.0316 µM) was 100%, the viability, T/C (second compound 0.1 µM, first compound 0.1 µM) was 105% and the viability, T/C (second compound 0.1 µM, first compound 0.316 µM) was 89.9%. It also gave a viability, T/C (second compound 0.1 µM, first compound 1 µM) of 69.6%, a viability, T/C (second compound 0.1 µM, first compound 3.16 µM) of 57.9% and a viability, T/C (second compound 0.1 µM, first compound 10 µM) of 35.9%. It also gave a viability, T/C (second compound 0.316 µM, first compound 0.0316 µM) of 106%, a viability, T/C (second compound 0.316 µM, first compound 0.1 µM) of 95.3% and a viability, T/C (second compound 0.316 µM, first compound 0.316 µM) of 82.5%. The viability, T/C (second compound 0.316 µM, first compound 1 µM) was 86.8%, the viability, T/C (second compound 0.316 µM, first compound 3.16 µM) was 92% and the viability, T/C (second compound 0.316 µM, first compound 10 µM) was 45.5%. The viability, T/C (second compound 1 µM, first compound 0.0316 µM) was 79.7%, the viability, T/C (second compound 1 µM, first compound 0.1 µM) was 102% and the viability, T/C (second compound 1 µM, first compound 0.316 µM) was 81.7%. For the same molecule, the viability, T/C (second compound 1 µM, first compound 1 µM) was 84.3%, the viability, T/C (second compound 1 µM, first compound 3.16 µM) was 75.6% and the viability, T/C (second compound 1 µM, first compound 10 µM) was 37%. For the same molecule, the viability, T/C (second compound 3.16 µM, first compound 0.0316 µM) was 105%, the viability, T/C (second compound 3.16 µM, first compound 0.1 µM) was 97.6% and the viability, T/C (second compound 3.16 µM, first compound 0.316 µM) was 79.5%. It also gave a viability, T/C (second compound 3.16 µM, first compound 1 µM) of 88.3%, a viability, T/C (second compound 3.16 µM, first compound 3.16 µM) of 56.8% and a viability, T/C (second compound 3.16 µM, first compound 10 µM) of 33.3%. It also gave a viability, T/C (second compound 10 µM, first compound 0.0316 µM) of 110%, a viability, T/C (second compound 10 µM, first compound 0.1 µM) of 93.4% and a viability, T/C (second compound 10 µM, first compound 0.316 µM) of 83.3%. The viability, T/C (second compound 10 µM, first compound 1 µM) was 78%, the viability, T/C (second compound 10 µM, first compound 3.16 µM) was 77.5% and the viability, T/C (second compound 10 µM, first compound 10 µM) was 56.1%.
